Test results: US10765662B2, “Mono- or di-substituted indole derivatives as dengue viral replication inhibitors” (Janssen Pharmaceuticals, Inc., priority 2015, dated 2020)

Tests used:
[1] = system: DENV-2 16681 strain labeled with enhanced green fluorescent protein; assay: DENV-2 antiviral assay (eGFP fluorescence read-out in Vero cells); assay type: cell-based, Dengue virus; details: DENV-2 16681 eGFP, MOI 0.5, 3 days
Method: The antiviral activity of all the compounds of the invention was tested against the DENV-2 16681 strain which was labeled with enhanced green fluorescent protein (eGPF). The culture medium consists of minimal essential medium supplemented with 2% of heat-inactivated fetal calf serum, 0.04% gentamycin (50 mg/mL) and 2 mM of L-glutamine. Vero cells, obtained from ECACC, were suspended in culture medium and 25 μL was added to 384-well plates (2500 cells/well), which already contain the antiviral compounds. Typically, these plates contain a 5-fold serial dilution of 9 dilution steps of the test compound at 200 times the final concentration in 100% DMSO (200 nL). […] Finally, each plate contains wells which are assigned as virus controls (containing cells and virus in the absence of compound), cell controls (containing cells in the absence of virus and compound) and medium controls (containing medium in the absence of cells, virus and compounds). To the wells assigned as medium control, 25 μL of culture medium was added instead of Vero cells. Once the cells were added to the plates, the plates were incubated for 30 minutes at room temperature to allow the cells to distribute evenly within the wells. Next, the plates were incubated in a fully humidified incubator (37° C., 5% CO2) until the next day. Then, DENV-2 strain 16681, labeled with eGFP, was added at a multiplicity of infection (MOI) of 0.5. Therefore, 15 μL of virus suspension was added to all the wells containing test compound and to the wells assigned as virus control. In parallel, 15 μL of culture medium was added to the medium and cell controls. Next, the plates were incubated for 3 days in a fully humidified incubator (37° C., 5% CO2). At the day of the read out, the eGFP fluorescence was measured using an automated fluorescence microscope at 488 nm (blue laser). Using an in-house LIMS system, inhibition dose response curves for each compound were calculated and the half maximal effective concentration (EC50) was determined. Therefore, the percent inhibition (I) for every test concentration is calculated using the following formula: I=100*([…])/(SVC−SCC); ST, SCC and SVC are the amount of eGFP signal in the test compound, cell control and virus control wells, respectively. The EC50 represents the concentration of a compound at which the virus replication is inhibited with 50%, as measured by a 50% reduction of the eGFP fluorescent intensity compared to the virus control. The EC50 is calculated using linear interpolation (Table 1).

in vitro = assay type: cell-based; details: African green monkey, CC50
Method: (§1) In parallel, the toxicity of the compounds was assessed on the same plates. Once the read-out for the eGFP signal was done, 40 μL of ATPlite, a cell viability stain, was added to all wells of the 384-well plates. ATP is present in all metabolically active cells and the concentration declines very rapidly when the cells undergo necrosis or apoptosis. The ATPLite assay system is based on the production of light caused by the reaction of ATP with added luciferase and D-luciferin. The plates were incubated for 10 minutes at room temperature. Next, the plates were measured on a ViewLux. The half maximal cytotoxic concentration (CC50) was also determined, defined as the concentration required to reduce the luminescent signal by 50% compared to that of the cell control wells. Finally, the selectivity index (SI) was determined for the compounds, which was calculated as followed: SI=CC50/EC50.

Vero cells = assay: in vitro; assay type: cell-based; details: African green monkey
Method: as §1

[2] = Dengue virus, DENV2, Vero, 72 h

Compound	EC50 [1, 2] [nM]	CC50 (in vitro) [nM]	EC50 [1] [nM]	CC50 (Vero cells) [nM]
COc1cc(NC(C(=O)c2c[nH]c3cc(F)ccc23)c2ccc(Cl)cc2OCCO)cc(S(C)(=O)=O)c1 (racemic) [Compound 1, 2-(4-chloro-2-(2-hydroxyethoxy)phenyl)-1-(6-fluoro-1H-indol-3-yl)-2-((3-methoxy-5-(methylsulfonyl)phenyl)amino)ethanone]	0.43	5100	–	–
COc1cc(NC(C(=O)c2c[nH]c3cc(OC)c(C)cc23)c2ccc(Cl)cc2OCCO)cc(S(C)(=O)=O)c1 (racemic) [Compound 6, 2-(4-chloro-2-(2-hydroxyethoxy)phenyl)-2-((3-methoxy-5-(methylsulfonyl)phenyl)amino)-1-(6-methoxy-5-methyl-1H-indol-3-yl)ethanone]	0.37	4700	–	–
COc1cc(NC(C(=O)c2c[nH]c3cc(F)c(F)cc23)c2ccc(Cl)cc2OCCO)cc(S(C)(=O)=O)c1 (racemic) [Compound 7, 2-(4-chloro-2-(2-hydroxyethoxy)phenyl)-1-(5,6-difluoro-1H-indol-3-yl)-2-((3-methoxy-5-(methylsulfonyl)phenyl)amino)ethanone]	0.26	2800	–	–
COc1cc(NC(C(=O)c2c[nH]c3cc(F)c(C)cc23)c2ccc(Cl)cc2OCCO)cc(S(C)(=O)=O)c1 (racemic) [Compound 8, 2-(4-chloro-2-(2-hydroxyethoxy)phenyl)-1-(6-fluoro-5-methyl-1H-indol-3-yl)-2-((3-methoxy-5-(methylsulfonyl)phenyl)amino)ethanone]	0.27	2800	–	–
COc1cc(NC(C(=O)c2c[nH]c3ccc(OC(F)(F)F)cc23)c2ccc(Cl)cc2OCCO)cc(S(C)(=O)=O)c1 (racemic) [Compound 10, 2-(4-chloro-2-(2-hydroxyethoxy)phenyl)-2-((3-methoxy-5-(methylsulfonyl)phenyl)amino)-1-(5-(trifluoromethoxy)-1H-indol-3-yl)ethanone]	0.1	> 2400	–	–
COc1cc(NC(C(=O)c2c[nH]c3c(C)cc(OC(F)(F)F)cc23)c2ccc(Cl)cc2OCCO)cc(S(C)(=O)=O)c1 (racemic) [Compound 12, 2-(4-chloro-2-(2-hydroxyethoxy)phenyl)-2-((3-methoxy-5-(methylsulfonyl)phenyl)amino)-1-(7-methyl-5-(trifluoromethoxy)-1H-indol-3-yl)ethanone]	0.1	2500	–	–
COc1cc(NC(C(=O)c2c[nH]c3cc(F)ccc23)c2ccc(Cl)cc2OCCO)cc(S(C)(=O)=O)c1 (single isomer, unassigned) [Compound 1B, 2-(4-chloro-2-(2-hydroxyethoxy)phenyl)-1-(6-fluoro-1H-indol-3-yl)-2-((3-methoxy-5-(methylsulfonyl)phenyl)amino)ethanone]	–	–	3.5	8400
COc1cc(NC(C(=O)c2c[nH]c3cc(Cl)ccc23)c2ccc(Cl)cc2OCCO)cc(S(C)(=O)=O)c1 (single isomer, unassigned) [Compound 2B, 1-(6-chloro-1H-indol-3-yl)-2-(4-chloro-2-(2-hydroxyethoxy)phenyl)-2-((3-methoxy-5-(methylsulfonyl)phenyl)amino)ethanone]	–	–	4.9	11000
COc1cc(NC(C(=O)c2c[nH]c3cc(OC)ccc23)c2ccc(Cl)cc2OCCO)cc(S(C)(=O)=O)c1 (single isomer, unassigned) [Compound 3B, 2-(4-chloro-2-(2-hydroxyethoxy)phenyl)-1-(6-methoxy-1H-indol-3-yl)-2-((3-methoxy-5-(methylsulfonyl)phenyl)amino)ethanone]	–	–	56	13000
COc1cc(NC(C(=O)c2c[nH]c3c(C)c(F)ccc23)c2ccc(Cl)cc2OCCO)cc(S(C)(=O)=O)c1 (single isomer, unassigned) [Compound 4B, 2-(4-chloro-2-(2-hydroxyethoxy)phenyl)-1-(6-fluoro-7-methyl-1H-indol-3-yl)-2-((3-methoxy-5-(methylsulfonyl)phenyl)amino)ethanone]	–	–	11	5700
COc1cc(NC(C(=O)c2c[nH]c3c(C)c(Cl)ccc23)c2ccc(Cl)cc2OCCO)cc(S(C)(=O)=O)c1 (single isomer, unassigned) [Compound 5A, 2-(4-chloro-2-(2-hydroxyethoxy)phenyl)-1-(6-chloro-7-methyl-1H-indol-3-yl)-2-((3-methoxy-5-(methylsulfonyl)phenyl)amino)ethanone]	–	5000	8.4	–
COc1cc(NC(C(=O)c2c[nH]c3cc(OC)c(C)cc23)c2ccc(Cl)cc2OCCO)cc(S(C)(=O)=O)c1 (single isomer, unassigned) [Compound 6B, 2-(4-chloro-2-(2-hydroxyethoxy)phenyl)-2-((3-methoxy-5-(methylsulfonyl)phenyl)amino)-1-(6-methoxy-5-methyl-1H-indol-3-yl)ethanone]	–	–	36	5900
COc1cc(NC(C(=O)c2c[nH]c3cc(F)c(F)cc23)c2ccc(Cl)cc2OCCO)cc(S(C)(=O)=O)c1 (single isomer, unassigned) [Compound 7B, 2-(4-chloro-2-(2-hydroxyethoxy)phenyl)-1-(5,6-difluoro-1H-indol-3-yl)-2-((3-methoxy-5-(methylsulfonyl)phenyl)amino)ethanone]	–	–	5	9200
COc1cc(NC(C(=O)c2c[nH]c3cc(F)c(C)cc23)c2ccc(Cl)cc2OCCO)cc(S(C)(=O)=O)c1 (single isomer, unassigned) [Compound 8B, 2-(4-chloro-2-(2-hydroxyethoxy)phenyl)-1-(6-fluoro-5-methyl-1H-indol-3-yl)-2-((3-methoxy-5-(methylsulfonyl)phenyl)amino)ethanone]	–	–	1.7	> 2400
COc1cc(NC(C(=O)c2c[nH]c3ccc(C(F)(F)F)cc23)c2ccc(Cl)cc2OCCO)cc(S(C)(=O)=O)c1 (single isomer, unassigned) [Compound 9A, 2-(4-chloro-2-(2-hydroxyethoxy)phenyl)-2-((3-methoxy-5-(methylsulfonyl)phenyl)amino)-1-(5-(trifluoromethyl)-1H-indol-3-yl)ethanone]	–	–	1.9	11000
COc1cc(NC(C(=O)c2c[nH]c3ccc(OC(F)(F)F)cc23)c2ccc(Cl)cc2OCCO)cc(S(C)(=O)=O)c1 (single isomer, unassigned) [Compound 10A, 2-(4-chloro-2-(2-hydroxyethoxy)phenyl)-2-((3-methoxy-5-(methylsulfonyl)phenyl)amino)-1-(5-(trifluoromethoxy)-1H-indol-3-yl)ethanone]	–	2300	2.9	–
COc1cc(NC(C(=O)c2c[nH]c3cc(OC)c(OC(F)(F)F)cc23)c2ccc(Cl)cc2OCCO)cc(S(C)(=O)=O)c1 (single isomer, unassigned) [Compound 11A, 2-(4-chloro-2-(2-hydroxyethoxy)phenyl)-2-((3-methoxy-5-(methylsulfonyl)phenyl)amino)-1-(6-methoxy-5-(trifluoromethoxy)-1H-indol-3-yl)ethanone]	–	> 2300	1.5	–
COc1cc(NC(C(=O)c2c[nH]c3c(C)cc(OC(F)(F)F)cc23)c2ccc(Cl)cc2OCCO)cc(S(C)(=O)=O)c1 (single isomer, unassigned) [Compound 12A, 2-(4-chloro-2-(2-hydroxyethoxy)phenyl)-2-((3-methoxy-5-(methylsulfonyl)phenyl)amino)-1-(7-methyl-5-(trifluoromethoxy)-1H-indol-3-yl)ethanone]	–	2500	5	–
